# According to patent publication US10172884B2, “Dialysis solutions comprising organic esters of phosphoric acid” (Fresenius Medical Care Deutschland GmbH, priority 2015, dated 2019):
# Experiment: modified rapid controlled precipitation method (controlled degassing of CO2 until precipitation)
# Type: physicochemical
# Excerpt: The “Rapid-Controlled Precipitation Method” or the “Critical pH Method” can be used for determining the stability of the dialysis solution such as is described in F. Hui et al: Journal European of Water Quality (Journal European d'Hydrologie) T.33 Fasc. 1 (2002).
# The results described within the framework of this disclosure were obtained by a modified rapid controlled precipitation method. The experiment setup comprises six 3-neck flasks (Carousel-6 from Radleys) which are open toward the top to ensure a uniform degassing of CO2 from the solution. Furthermore, this setup allows an in-line measurement of e.g. the pH and the conductivity as well as the simultaneous heating of the flasks.
# The basic principle of the method used comprises the pH of the mixed solution or of the dialysis solution being slowly raised by controlled degassing of CO2 until the dialysis solution reaches a metastable state and ultimately precipitates.
# A pH measurement, a particle count or a turbidity measurement can be used, for example, as methods for detecting the precipitation. […] The measured curves which can be obtained using these methods are compared in FIG. 3. […]
# The pHmax and the precipitation products of the different solutions are compiled in Table 4 shown in the following. The values were all determined at 40° C. using the “rapid degassing” method. […]
compound,measurement,setting,value
O=P(O)(O)OCC(O)CO (centres unmarked) [glycerol orthophosphate],Precipitation product,"40° C., rapid degassing method",no phosphates low in solubility are formed
same,stability of the solution (pHmax and tG values),"T=40° C., result in words, FIGS. 10, 12, 13, 15",almost the same stabilizing effect as the addition of 0.1 mmol/L orthophosphate
